Data reported in patent publication US10227357B2, “Compounds and methods for kinase modulation, and indications therefor” (Plexxikon Inc., priority 2012, dated 2019).

Biological target: T1, c-kit mutant D816V (Homo sapiens, UniProt P10721, D816V/DEL694-753)
T1 construct: residues 551-934, kinase insertion domain residues 694-753 deleted; 6x-histidine (N); made in house; host or cells: E. coli Arctic Express (DE3) RIL (Stratagene)
Experiment: c-Kit mutant D816V biochemical assay, AlphaScreen
Details: c-kit D816V biochemical inhibitory activity; read-out: Biochemical activity (IC50 μM) Kit D816V
Procedure: Compounds to be tested were dissolved in DMSO to a concentration of 20 mM. These were diluted 30 μl into 120 μl of DMSO (4 mM) and 1 μl was added to an assay plate. These were then serially diluted 1:3 (50 μl to 100 μl DMSO) for a total of 8 points. Plates were prepared such that each kinase reaction is 20 μl in 1× kinase buffer (25 mM HEPES, pH 7.2, 8 mM MgCl2, 2 mM MnCl2, 50 mM NaCl, 0.01% Brij, 1 mM DTT, 0.01% BSA), 5% DMSO and 10 μM ATP. […] After incubation of the kinase reaction for 30 minutes at room temperature, 5 μl of donor beads (Streptavidin coated beads (Perkin Elmer Life Science) final concentration 7.5 μg/ml) in stop buffer (25 mM Hepes pH 7.5, 100 mM EDTA, 0.01% BSA) was added, the sample was mixed and incubated for 20 minutes at room temperature before adding 5 μl of acceptor beads (PY20 coated beads (Perkin Elmer Life Science) final concentration 7.5 μg/ml) in stop buffer. The samples were incubated for 60 minutes at room temperature and the signal per well was read on EnVision reader. […] The signal vs. compound concentration was used to determine the IC50.
Cells were grown in Terrific Broth (TB) media to an OD600 of 0.6 at 37° C. at which temperature was reduced to 10° C., protein was induced with 1.0 mM IPTG for 18 hours and harvested by centrifugation at 8000×g for 20 minutes. Cells were re-suspended in 0.1M KPO4 pH 8.0, 250 mM NaCl, 10% Glycerol, 0.75% NP-40, 25 mM Imidazole, 5 mM BME with 0.2 mg/ml Lysosyme, 2.0 mM PMSF, 25 μg/ml DNAse I, incubated in ice for 30 minutes and lysed with a cell disruptor (MicroFluidics). The lysate was clarified by centrifugation at 20,000×g for 2 hours. The protein was captured with Talon resin (Clontech). Contaminating proteins were washed off with 25 mM Tris-HCl pH 8.3, 250 mM NaCl, 15% Glycerol, 1% Triton X-100, and protein eluted using 100 mM EDTA. The protein was further purified using Gel Filtration column 26/600 Superdex 200 (GE) in 50 mM Tris-HCl, pH 8.0, 250 mM NaCl, 15% Glycerol, 5 mM BME. The protein was aliquoted and flash-frozen in liquid Nitrogen.

T1 sequence (P10721 with tags, fused parts or gaps DEL694-753/D816V): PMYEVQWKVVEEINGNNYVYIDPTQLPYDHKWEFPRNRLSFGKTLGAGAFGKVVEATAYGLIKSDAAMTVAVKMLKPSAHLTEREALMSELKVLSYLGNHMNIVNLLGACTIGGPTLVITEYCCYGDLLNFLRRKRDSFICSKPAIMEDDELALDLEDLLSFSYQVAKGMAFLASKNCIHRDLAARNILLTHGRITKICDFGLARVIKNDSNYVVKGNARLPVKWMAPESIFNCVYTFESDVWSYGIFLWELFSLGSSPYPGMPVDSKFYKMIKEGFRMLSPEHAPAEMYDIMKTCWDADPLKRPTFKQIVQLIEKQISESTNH

Row | SMILES | IC50 [µM]
1 | NS(=O)(=O)c1ccc(-c2ncnc3[nH]c(-c4ccc(F)cc4)cc23)c(F)c1 [P-0376, 3-fluoro-4-[6-(4-fluorophenyl)-7H-pyrrolo[2,3-d]pyrimidin-4-yl]benzenesulfonamide] | 0.0001 to 1
2 | Cc1cc2c(-c3ccc(S(=O)(=O)NC4CC4)cc3)ncnc2[nH]1 [P-0380, N-cyclopropyl-4-(6-methyl-7H-pyrrolo[2,3-d]pyrimidin-4-yl)benzenesulfonamide] | 10 to 200
3 | O=S(=O)(Nc1cccc(-c2ncnc3[nH]c(-c4cnc(C5CC5)nc4)cc23)c1)C1CC1 [P-0383, N-[3-[6-(2-cyclopropylpyrimidin-5-yl)-7H-pyrrolo[2,3-d]pyrimidin-4-yl]phenyl]cyclopropanesulfonamide] | 10 to 200
4 | c1nc(-c2cnc(C3CC3)nc2)c2cc(-c3cnc(C4CC4)nc3)[nH]c2n1 [P-0384, 4,6-bis(2-cyclopropylpyrimidin-5-yl)-7H-pyrrolo[2,3-d]pyrimidine] | 10 to 200
5 | NS(=O)(=O)c1ccc(-c2ncnc3[nH]c(-c4cnc(C5CC5)nc4)cc23)cc1 [P-0385, 4-[6-(2-cyclopropylpyrimidin-5-yl)-7H-pyrrolo[2,3-d]pyrimidin-4-yl]benzenesulfonamide] | 1 to 10
6 | O=S(=O)(Nc1ccc(-c2ncnc3[nH]c(-c4ccc(F)cc4)cc23)c(F)c1)N1CCCC1 [P-0400, N-[3-fluoro-4-[6-(4-fluorophenyl)-7H-pyrrolo[2,3-d]pyrimidin-4-yl]phenyl]pyrrolidine-1-sulfonamide] | 1 to 10
7 | O=S(=O)(Nc1ccc(-c2ncnc3[nH]c(-c4ccc(F)cc4)cc23)cc1F)N1CCCC1 [P-0405, N-[2-fluoro-4-[6-(4-fluorophenyl)-7H-pyrrolo[2,3-d]pyrimidin-4-yl]phenyl]pyrrolidine-1-sulfonamide] | 10 to 200
8 | O=S(=O)(Nc1ccc(-c2ncnc3[nH]c(-c4ccc(F)cc4)cc23)cc1)N1CCCC1 [P-0411, N-[4-[6-(4-fluorophenyl)-7H-pyrrolo[2,3-d]pyrimidin-4-yl]phenyl]pyrrolidine-1-sulfonamide] | 1 to 10
9 | CCNc1ccc(-c2ncnc3[nH]c(-c4ccc(F)cc4)cc23)cn1 [P-0417, N-ethyl-5-[6-(4-fluorophenyl)-7H-pyrrolo[2,3-d]pyrimidin-4-yl]pyridin-2-amine] | 1 to 10
10 | CCNS(=O)(=O)c1ccc(-c2ncnc3[nH]c(-c4ccc(F)cc4)cc23)cc1 [P-0422, N-ethyl-4-[6-(4-fluorophenyl)-7H-pyrrolo[2,3-d]pyrimidin-4-yl]benzenesulfonamide] | 10 to 200
11 | O=S(=O)(Nc1ccc(F)cc1)c1ccc(-c2ncnc3[nH]c(-c4ccc(F)cc4)cc23)cc1 [P-0428, N-(4-fluorophenyl)-4-[6-(4-fluorophenyl)-7H-pyrrolo[2,3-d]pyrimidin-4-yl]benzenesulfonamide] | 0.0001 to 1
12 | Cc1ccc(S(=O)(=O)Nc2cccc(-c3ncnc4[nH]c(-c5ccc(F)cc5)cc34)c2)cc1 [P-0435, N-[3-[6-(4-fluorophenyl)-7H-pyrrolo[2,3-d]pyrimidin-4-yl]phenyl]-4-methyl-benzenesulfonamide] | 10 to 200
13 | Cc1csc(S(=O)(=O)NC2CCN(c3ncnc4[nH]c(-c5cnn(C)c5)cc34)CC2)c1 [P-0453, 4-methyl-N-[1-[6-(1-methylpyrazol-4-yl)-7H-pyrrolo[2,3-d]pyrimidin-4-yl]-4-piperidyl]thiophene-2-sulfonamide] | 0.0001 to 1
14 | Cn1cc(-c2cc3c(N4CCC(NS(=O)(=O)c5ccc6c(c5)OCO6)CC4)ncnc3[nH]2)cn1 [P-0456, N-[1-[6-(1-methylpyrazol-4-yl)-7H-pyrrolo[2,3-d]pyrimidin-4-yl]-4-piperidyl]-1,3-benzodioxole-5-sulfonamide] | 0.0001 to 1
15 | Cc1ncc(-c2cc3c(N4CCC(NS(=O)(=O)c5ccc(OC(F)(F)F)cc5)CC4)ncnc3[nH]2)s1 [P-0463, N-[1-[6-(2-methylthiazol-5-yl)-7H-pyrrolo[2,3-d]pyrimidin-4-yl]-4-piperidyl]-4-(trifluoromethoxy)benzenesulfonamide] | 10 to 200
16 | O=S(=O)(NC1CCN(c2ncnc3[nH]c(-c4ccc(Cl)cc4)cc23)CC1)c1cc2ccccc2s1 [P-0467, N-[1-[6-(4-chlorophenyl)-7H-pyrrolo[2,3-d]pyrimidin-4-yl]-4-piperidyl]benzothiophene-2-sulfonamide] | 1 to 10
17 | CC(C)Oc1ccc(S(=O)(=O)NC2CCN(c3ncnc4[nH]c(-c5ccc(Cl)cc5)cc34)CC2)cc1 [P-0468, N-[1-[6-(4-chlorophenyl)-7H-pyrrolo[2,3-d]pyrimidin-4-yl]-4-piperidyl]-4-isopropoxy-benzenesulfonamide] | 0.0001 to 1
18 | CN(C)S(=O)(=O)NC1CCN(c2ncnc3[nH]c(-c4cnn(C)c4)cc23)CC1 [P-0469, 4-[4-(dimethylsulfamoylamino)-1-piperidyl]-6-(1-methylpyrazol-4-yl)-7H-pyrrolo[2,3-d]pyrimidine] | 0.0001 to 1
19 | O=S(=O)(NC1CCN(c2ncnc3[nH]c(C#CC4CC4)cc23)CC1)c1ccc(Cl)cc1 [P-0471, 4-chloro-N-[1-[6-(2-cyclopropylethynyl)-7H-pyrrolo[2,3-d]pyrimidin-4-yl]-4-piperidyl]benzenesulfonamide] | 10 to 200
20 | O=S(=O)(NC1CCN(c2ncnc3[nH]c(-c4ccc(Cl)cc4)cc23)CC1)c1cccc(Cl)c1 [P-0480, 3-chloro-N-[1-[6-(4-chlorophenyl)-7H-pyrrolo[2,3-d]pyrimidin-4-yl]-4-piperidyl]benzenesulfonamide] | 1 to 10
21 | O=S(=O)(NC1CCN(c2ncnc3[nH]c(-c4ccc(Cl)cc4)cc23)CC1)c1ccc(F)cc1 [P-0481, N-[1-[6-(4-chlorophenyl)-7H-pyrrolo[2,3-d]pyrimidin-4-yl]-4-piperidyl]-4-fluoro-benzenesulfonamide] | 10 to 200
22 | Cn1cc(-c2cc3c(N4CCC(NS(=O)(=O)c5ccc(N6CCCC6=O)cc5)CC4)ncnc3[nH]2)cn1 [P-0483, N-[1-[6-(1-methylpyrazol-4-yl)-7H-pyrrolo[2,3-d]pyrimidin-4-yl]-4-piperidyl]-4-(2-oxopyrrolidin-1-yl)benzenesulfonamide] | 0.0001 to 1
23 | CCCn1cc(S(=O)(=O)NC2CCN(c3ncnc4[nH]c(-c5cnn(C)c5)cc34)CC2)cn1 [P-0484, N-[1-[6-(1-methylpyrazol-4-yl)-7H-pyrrolo[2,3-d]pyrimidin-4-yl]-4-piperidyl]-1-propyl-pyrazole-4-sulfonamide] | 1 to 10
24 | Cn1cc(-c2cc3c(N4CCC(NS(=O)(=O)c5ccc(F)cc5)CC4)ncnc3[nH]2)cn1 [P-0490, 4-fluoro-N-[1-[6-(1-methylpyrazol-4-yl)-7H-pyrrolo[2,3-d]pyrimidin-4-yl]-4-piperidyl]benzenesulfonamide] | 1 to 10
25 | Cn1cc(-c2cc3c(N4CCC(NS(=O)(=O)c5ccccc5OC(F)(F)F)CC4)ncnc3[nH]2)cn1 [P-0493, N-[1-[6-(1-methylpyrazol-4-yl)-7H-pyrrolo[2,3-d]pyrimidin-4-yl]-4-piperidyl]-2-(trifluoromethoxy)benzenesulfonamide] | 10 to 200
26 | COc1ccc(S(=O)(=O)NC2CCN(c3ncnc4[nH]c(-c5cnn(C)c5)cc34)CC2)cc1 [P-0496, 4-methoxy-N-[1-[6-(1-methylpyrazol-4-yl)-7H-pyrrolo[2,3-d]pyrimidin-4-yl]-4-piperidyl]benzenesulfonamide] | 0.0001 to 1
27 | Cn1cc(-c2cc3c(N4CCC(NS(=O)(=O)c5ccc(OC(F)(F)F)cc5)CC4)ncnc3[nH]2)cn1 [P-0497, N-[1-[6-(1-methylpyrazol-4-yl)-7H-pyrrolo[2,3-d]pyrimidin-4-yl]-4-piperidyl]-4-(trifluoromethoxy)benzenesulfonamide] | 1 to 10
28 | O=S(=O)(NC1CCN(c2ncnc3[nH]c(-c4ccc(Cl)cc4)cc23)CC1)c1cccc(OC(F)(F)F)c1 [P-0499, N-[1-[6-(4-chlorophenyl)-7H-pyrrolo[2,3-d]pyrimidin-4-yl]-4-piperidyl]-3-(trifluoromethoxy)benzenesulfonamide] | 1 to 10
29 | Cn1cc(-c2cc3c(N4CCC(NS(=O)(=O)c5cccc(OC(F)(F)F)c5)CC4)ncnc3[nH]2)cn1 [P-0500, N-[1-[6-(1-methylpyrazol-4-yl)-7H-pyrrolo[2,3-d]pyrimidin-4-yl]-4-piperidyl]-3-(trifluoromethoxy)benzenesulfonamide] | 10 to 200
30 | O=C(NCc1ccc(F)cc1)NC1CCN(c2ncnc3[nH]ccc23)CC1 [P-0509, 1-[(4-fluorophenyl)methyl]-3-[1-(7H-pyrrolo[2,3-d]pyrimidin-4-yl)-4-piperidyl]urea] | 10 to 200
